Reference: patent US12083101B2, “Biaryl derivatives as YAP/TAZ-TEAD protein-protein interaction inhibitors” (Novartis AG, priority 2020, dated 2024)

Key:
[1] = test system: MKN-45/Ubc-luc cells; assay: Proliferation assay (resazurin), MKN-45; assay type: cell-based; conditions: Homo sapiens, 72 hours incubation
Experimental: As a specificity control, MKN-45 cells were stably transduced with a Ubc-Luc reporter construct, in which constitutive expression of firefly luciferase is driven by the promoter of the ubiquitin C housekeeping gene.
(§1) Stock solutions of compounds were prepared at a concentration of 10 mM in DMSO and stored at 4° C. Where necessary to afford a full dose-response curve, the stock solutions were pre-diluted in DMSO to 1'000-fold the desired reduced start concentration. On the day after cell seeding, eleven 2-fold serial dilutions of each compound were dispensed directly into the cell assay plates using a HP 300D non-contact Digital Dispenser (TECAN, Mannedorf, Switzerland). The final concentration of DMSO was normalized to 0.1% in all wells.
(§2) The functional effect of compounds on cell proliferation was assessed using NCI-H2052 Tet-On shYAP_2371 pLenti6 MCAT_Luc and MKN-45/Ubc-luc cells by quantifying the reducing capacity of live cells using the redox indicator dye resazurin. […] For data analysis, the assay background value determined in wells containing medium, but no cells, was subtracted from all data points. […] The effect of a particular test compound concentration on cell proliferation/viability was expressed as percentage of day 0-corrected fluorescence reading obtained for cells treated with vehicle only (DMSO, final concentration 0.1%), which was set as 100%, whereas the fluorescence reading for wells containing medium only, but no cells, was set as −100%. Compound concentrations leading to half-maximal growth inhibition (GI50) were determined using standard four parameter curve fitting.

[2] = test system: MKN-45/Ubc-luc cells; assay: Reporter gene specificity control (Ubc-luciferase), MKN-45; conditions: Homo sapiens, MKN-45, 24 h, read-out: Reporter gene assay MKN-45 IC50 [μM], MKN-45/Ubc-luc cells (YAP deleted, specificity control), 24 hours incubation
[3] = test system: NCI-H2052 Tet-On shYAP_2371 pLenti6 MCAT_Luc cells (YAP-dependent transcription); assay: YAP reporter gene activity assay (MCAT-luciferase), NCI-H2052; assay type: cell-based; conditions: Homo sapiens, NCI-H2052, 24 h, 24 hours incubation, BrightGlo luminescence
Experimental: (§3) This cell line was also transduced with a Tet-pLKO-puro-based construct mediating tetracycline-inducible expression of a short-hairpin directed against the 3′UTR of the YAP1 mRNA (5′-[…]-3′).
as §1
The ability of compounds to inhibit YAP-dependent transcription was assessed in NCI-H2052 Tet-On shYAP_2371 pLenti6 MCAT_Luc cells, while specificity (lack of unspecific inhibition of luciferase expression of activity) was assessed in MKN-45/Ubc-luc cells. […] Following incubation for 24 hours at 37° C., compound-mediated modulation of reporter-gene activity was quantified 5 min after addition of 20 μl BrightGlo (Promega, Cat #E2620), by measuring luminescence intensity on a multi-mode plate-reader (TECAN, Männedorf, Switzerland, Integration time 100 ms). For data analysis, the assay background value determined in wells containing medium, but no cells, was subtracted from all data points. Dose-dependent compound effects were expressed as % of vehicle-treated control (luminescence signal produced by cells receiving DMSO only) and IC50s calculated using a four-parametric fit model.

[4] = test system: NCI-H2052 Tet-On shYAP_2371 pLenti6 MCAT_Luc cells; assay: Proliferation assay (resazurin), NCI-H2052; assay type: cell-based; conditions: Homo sapiens, NCI-H2052, 72 h, 72 hours incubation
Experimental: as §3, §1, §2

[5] = biological target: Avi-humanTEAD4 217-434 / Cy5 labeled humanYAP 60-100 (Homo sapiens (Human), UniProt Q15561); assay: TR-FRET YAP-TEAD4 in-vitro biochemical assay; assay type: binding; conditions: 1 nM Avi-humanTEAD4 217-434, 20 nM Cy5-humanYAP 60-100, 1 h room temperature
Chain of Avi-humanTEAD4 217-434 / Cy5 labeled humanYAP 60-100 (Q15561 217-434): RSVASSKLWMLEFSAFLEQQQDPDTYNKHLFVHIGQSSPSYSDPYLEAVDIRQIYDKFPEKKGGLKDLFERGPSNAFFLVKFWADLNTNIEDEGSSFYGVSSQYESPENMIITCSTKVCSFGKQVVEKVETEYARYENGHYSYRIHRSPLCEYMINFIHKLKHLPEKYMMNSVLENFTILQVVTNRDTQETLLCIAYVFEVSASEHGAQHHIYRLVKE

Row | Compound | IC50 [5] | also measured
1 | CNC(=O)c1ccc(OCCO)c(F)c1-c1c(Cl)c(F)cc2c1C[C@@](CN)(c1ccccc1)O2 (atropisomer, axis not shown) [Example 44, 2-((2S,4S)-2-(Aminomethyl)-5-chloro-6-fluoro-2-phenyl-2,3-dihydrobenzofuran-4-yl)-3-fluoro-4-(2-hydroxyethoxy)-N-methylbenzamide] | – | GI50 [1]: > 10 µM; IC50 [2]: > 10 µM; IC50 [3]: 0.069 µM; GI50 [4]: 0.109 µM
2 | CO[C@H]1c2c(cc(F)c(Cl)c2-c2c(C(N)=O)ccc(OCCO)c2F)O[C@]1(CN)c1ccccc1 (atropisomer, axis not shown) [Example 101, 2-((2S,3S,4S)-2-(Aminomethyl)-5-chloro-6-fluoro-3-methoxy-2-phenyl-2,3-dihydrobenzofuran-4-yl)-3-fluoro-4-(2-hydroxyethoxy)benzamide] | – | GI50 [1]: > 10 µM; IC50 [2]: > 10 µM; IC50 [3]: 0.067 µM; GI50 [4]: 0.106 µM
3 | CNC(=O)[C@H]1CC[C@H](NC[C@@]2(c3ccccc3)Cc3c(ccc(Cl)c3-c3c(F)cccc3C(N)=O)O2)CC1 (relative stereo) [Example 139a, 2-((2S,4S)-5-Chloro-2-((((trans)-4-(methylcarbamoyl)cyclohexyl)amino)methyl)-2-phenyl-2,3-dihydrobenzofuran-4-yl)-3-fluorobenzamide] | 0.021 µM | –
4 | CNC(=O)[C@H]1CC[C@@H](NC[C@@]2(c3ccccc3)Cc3c(ccc(Cl)c3-c3c(F)cccc3C(N)=O)O2)CC1 (relative stereo) [Example 139b, 2-((2S,4S)-5-chloro-2-((((cis)-4-(methylcarbamoyl)cyclohexyl)amino)methyl)-2-phenyl-2,3-dihydrobenzofuran-4-yl)-3-fluorobenzamide] | 0.011 µM | –
5 | NC(=O)c1ccc(OC(F)F)c(F)c1-c1c(Cl)c(F)cc2c1C[C@@](CNC1CCC(O)(CF)CC1)(c1ccccc1)O2 (single isomer, unassigned) [Example 55a] | < 0.001 µM | –
6 | NC(=O)c1ccc(OC(F)F)c(F)c1-c1c(Cl)c(F)cc2c1C[C@@](CNC1CCC(O)(CF)CC1)(c1ccccc1)O2 (single isomer, unassigned) [Example 55b] | 0.002 µM | –
7 | CS(=O)(=O)NC1CCC(NC[C@@]2(c3ccccc3)Cc3c(cc(F)c(Cl)c3-c3c(C(N)=O)ccc(OC(F)F)c3F)O2)CC1 (single isomer, unassigned) [Example 57a] | 0.003 µM | –
8 | CS(=O)(=O)NC1CCC(NC[C@@]2(c3ccccc3)Cc3c(cc(F)c(Cl)c3-c3c(C(N)=O)ccc(OC(F)F)c3F)O2)CC1 (single isomer, unassigned) [Example 57b] | 0.006 µM | –
9 | NC(=O)c1ccc(OC(F)F)c(F)c1-c1c(Cl)c(F)cc2c1C[C@@](CNC1CCC3(CCC(=O)N3)CC1)(c1ccccc1)O2 (single isomer, unassigned) [Example 59a] | 0.006 µM | –
10 | NC(=O)c1ccc(OC(F)F)c(F)c1-c1c(Cl)c(F)cc2c1C[C@@](CNC1CCC3(CCC(=O)N3)CC1)(c1ccccc1)O2 (single isomer, unassigned) [Example 59b] | 0.005 µM | –
11 | NC(=O)c1ccc(OC(F)F)c(F)c1-c1c(Cl)c(F)cc2c1C[C@@](CNC1CCC(CO)CC1)(c1ccccc1)O2 (single isomer, unassigned) [Example 61a] | 0.008 µM | –
12 | NC(=O)c1ccc(OC(F)F)c(F)c1-c1c(Cl)c(F)cc2c1C[C@@](CNC1CCC(CO)CC1)(c1ccccc1)O2 (single isomer, unassigned) [Example 61b] | 0.01 µM | –
13 | NC(=O)c1ccc(OC(F)F)c(F)c1-c1c(Cl)c(F)cc2c1C[C@@](CNC1CC3(CC(O)C3)C1)(c1ccccc1)O2 (single isomer, unassigned) [Example 85b] | 0.007 µM | –
14 | COc1ccc(C(N)=O)c(-c2c(Cl)ccc3c2OC(CN)(c2ccccc2)C3)c1F (single isomer, unassigned) [Example 132, 2-(2-(Aminomethyl)-6-chloro-2-phenyl-2,3-dihydrobenzofuran-7-yl)-3-fluoro-4-methoxybenzamide] | 2.08 µM | –
15 | NCC1(c2ccccc2)Oc2ccc(Cl)c(-c3c(F)cccc3C(N)=O)c2O1 (single isomer, unassigned) [Example 133, 2-(2-(Aminomethyl)-5-chloro-2-phenylbenzo[d][1,3]dioxol-4-yl)-3-fluorobenzamide] | 0.695 µM | –
16 | COc1ccc(C(N)=O)c(-c2c(Cl)c(F)cc3c2C[C@](c2ccccc2)(C2COCCN2)O3)c1F (single isomer, unassigned) [Example 163] | 0.13 µM | –
17 | NC[C@@]1(c2ccccc2)Cc2c(ccc(Cl)c2-c2c(F)cccc2C(N)=O)O1 (stereo in doubt) [Example 4a, 2-((2S*,4S*)-2-(Aminomethyl)-5-chloro-2-phenyl-2,3-dihydrobenzofuran-4-yl)-3-fluorobenzamide] | 0.034 µM | –
18 | NC[C@]1(c2ccccc2)Cc2c(ccc(Cl)c2-c2c(F)cccc2C(N)=O)O1 (stereo in doubt) [Example 4b, 2-((2S*,4R*)-2-(aminomethyl)-5-chloro-2-phenyl-2,3-dihydrobenzofuran-4-yl)-3-fluorobenzamide] | > 100 µM | –
19 | NCCOc1cccc(F)c1-c1c(Cl)ccc2c1C[C@@](CN)(c1ccccc1)O2 [Example 3a, 2-(2-((2S,4S)-2-(Aminomethyl)-5-chloro-2-phenyl-2,3-dihydrobenzofuran-4-yl)-3-fluorophenoxy)ethanamine] | 0.016 µM | –
20 | NCCOc1cccc(F)c1-c1c(Cl)ccc2c1C[C@](CN)(c1ccccc1)O2 [Example 3b, 2-(2-((2R,4R)-2-(aminomethyl)-5-chloro-2-phenyl-2,3-dihydrobenzofuran-4-yl)-3-fluorophenoxy)ethanamine] | 18 µM | –
21 | NC[C@@]1(c2ccccc2)Cc2c(cc(F)c(Cl)c2-c2c(F)cccc2C(N)=O)O1 [Example 32b, 2-((2S,4R)-2-(aminomethyl)-5-chloro-6-fluoro-2-phenyl-2,3-dihydrobenzofuran-4-yl)-3-fluorobenzamide] | > 100 µM | –
22 | NC(=O)c1ccc(OC(F)F)c(F)c1-c1c(Cl)c(F)cc2c1C[C@@](CNC1CC3(CC(O)C3)C1)(c1ccccc1)O2 (stereo partly drawn) [Example 85a, 2-((2S,4S)-5-Chloro-6-fluoro-2-(((6-hydroxyspiro[3.3]heptan-2-yl)amino)methyl)-2-phenyl-2,3-dihydrobenzofuran-4-yl)-4-(difluoromethoxy)-3-fluorobenzamide] | 0.004 µM | –
23 | N#Cc1ccc2c(c1-c1ccccc1)C[C@@](CN[C@H]1CC[C@H](O)CC1)(c1ccccc1)O2 [Example 130, (S)-2-((((trans)-4-Hydroxycyclohexyl)amino)methyl)-2,4-diphenyl-2,3-dihydrobenzofuran-5-carbonitrile] | 0.797 µM | –
24 | CNC(=O)c1cnc(OCC(=O)O)c(F)c1-c1c(Cl)c(F)cc2c1C[C@](c1ccccc1)([C@@H]1CCCN1)O2 [Example 156, 2-((4-((2S,4S)-5-Chloro-6-fluoro-2-phenyl-2-((S)-pyrrolidin-2-yl)-2,3-dihydrobenzofuran-4-yl)-3-fluoro-5-(methylcarbamoyl)pyridin-2-yl)oxy)acetic acid] | 0.011 µM | –
25 | CNC(=O)c1cnc(O)c(F)c1-c1c(Cl)c(F)cc2c1C[C@](c1ccccc1)([C@@H]1CCCN1)O2 [Example 157, 4-((2S,4S)-5-chloro-6-fluoro-2-phenyl-2-((S)-pyrrolidin-2-yl)-2,3-dihydrobenzofuran-4-yl)-5-fluoro-6-hydroxy-N-methylnicotinamide] | 0.075 µM | –
26 | Fc1cc2c(c(-c3ccccc3)c1Cl)C[C@](c1ccccc1)([C@@H]1C[C@@H](F)CN1)O2 [Example 160, (2S,4R)-2-((S)-5-chloro-6-fluoro-2,4-diphenyl-2,3-dihydrobenzofuran-2-yl)-4-fluoropyrrolidine] | 4.4 µM | –
